In data set [1] the test system is Trypanosoma brucei brucei. Description: Antitrypanosomal activity against Trypanosoma brucei brucei BS427 after 48 hrs by alamar blue assay. It counts as functional, organism-based. The settings on record: BS427, 48 h. On the technique in general: Resazurin is reduced to fluorescent resorufin, in cell work by metabolically active cells.
Data set [2] can be described thus: Selectivity ratio of IC50 for HEK293 cells to IC50 for Trypanosoma brucei brucei BS427. It counts as ADME, cell-based. The settings on record: human, read-out: Ratio IC50.
The test system of data set [3] is HEK293. Description: Cytotoxicity against HEK293 cells after 48 hrs by alamar blue assay. Type of data set: cell-based. The settings on record: Homo sapiens, HEK293, 48 h.
The subject of data set [4] is HEK293. Nature of the data set: Cytotoxicity against HEK293 cells after at 83 uM 48 hrs by alamar blue assay. It counts as cell-based. The settings on record: human, hek293, 48 h.

Molecules are shown by their SMILES. pIC50: −log10 of the molar value.

The pIC50 is the negative decadic logarithm of the IC50, by convention in mol/L. A higher pIC50 goes with a low IC50.

In turn, `C=C1CCC[C@@H]2[C@@H](CC[C@@]3(C)CC[C@H]([C@H](C)C(=O)O)OO3)[C@H](C)CC[C@@]12C` [SIGMOSCEPTRELLIN B] showed a pIC50 in data set [1] of 6.29.
On to `CC[C@@H](/C=C/C(C)=O)C[C@H](C)C[C@@]1(CC)C[C@@H](CC)[C@@H](CC(=O)O)OO1`, for which, in data set [2], the selectivity ratio worked out at 105. The negative logarithm of the IC50 (pIC50) was 8.29 in data set [3] and 7.31 in data set [1].
Compound `CC[C@H](C[C@H](C)C[C@@]1(CC)C[C@@H](CC)[C@@H](CC(=O)O)OO1)C(=O)O` registered an Activity in data set [4] of 100%. For the same compound, the pIC50 in data set [1] is 6.03.

(Values after ChEMBL document CHEMBL1157089, “Antitrypanosomal cyclic polyketide peroxides from the Australian marine sponge Plakortis sp” (J Nat Prod, 2010).)
